The assay concerns the target T1, Dopamine beta hydroxylase (Homo sapiens, UniProt P09172).
T1 construct: 125 μl of plasma; tissue Instituto Português do Sangue Transplantação; host or cells: human plasma from healthy donors
T1 sequence (P09172 40-617 limits assumed): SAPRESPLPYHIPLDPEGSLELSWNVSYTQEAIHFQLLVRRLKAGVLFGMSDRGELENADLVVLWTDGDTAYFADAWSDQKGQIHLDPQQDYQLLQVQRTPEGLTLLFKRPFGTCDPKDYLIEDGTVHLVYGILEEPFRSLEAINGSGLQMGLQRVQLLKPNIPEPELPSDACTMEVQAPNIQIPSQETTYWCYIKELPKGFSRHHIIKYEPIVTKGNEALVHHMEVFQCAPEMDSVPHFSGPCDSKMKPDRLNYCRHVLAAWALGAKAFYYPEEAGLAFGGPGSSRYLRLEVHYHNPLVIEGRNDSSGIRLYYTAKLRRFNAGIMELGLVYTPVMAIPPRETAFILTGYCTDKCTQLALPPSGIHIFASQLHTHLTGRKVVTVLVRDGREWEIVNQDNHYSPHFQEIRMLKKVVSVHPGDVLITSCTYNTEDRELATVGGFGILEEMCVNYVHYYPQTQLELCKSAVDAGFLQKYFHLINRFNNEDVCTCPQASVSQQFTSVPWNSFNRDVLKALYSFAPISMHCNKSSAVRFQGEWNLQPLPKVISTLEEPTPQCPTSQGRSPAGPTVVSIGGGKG
The assay can be described thus: Dopamine beta hydroxylase activity in human plasma. In kind it is biochemical. The conditions noted are these: for Plasma (0.1 μM), activity in % of control: inhibitor 0.1 μM; for Plasma (1 μM), activity in % of control: inhibitor 1 μM. On the procedure: Furthermore, the ability of a compound to inhibit DβH activity may be assessed in human plasma using the following assay. […]. Dopamine beta hydroxylase activity in human plasma was measured by the method of Nagatsu and Udenfriend (Nagatsu, T. and Udenfriend, S. “Photometric assay of dopamine-μ-hydroxylase activity in human blood.” Clin. Chem. 18(9) 980-983, 1972) with minor modifications. Catalase, N-ethylmaleimide, tyramine, disodium fumarate, pargyline, sodium acetate, ascorbic acid, copper sulfate and octopamine were obtained from Sigma Chemical Co., St. Louis, Mo. 63178. Human plasma samples were obtained from healthy donors (Instituto Português do Sangue Transplantação, Centro Sangue Transplantação, Porto, Portugal). From date of collection, plasma was stored at −80° C. until use. Test compounds were initially prepared in dimethyl sulfoxide at a concentration of 10 mM and diluted in dimethyl sulfoxide to the required concentrations. Test compounds were further diluted in ultrapure water to a concentration 20-fold to that of the final concentration to be tested. Final concentrations of test compounds were 10, 100 and 1000 nM. The various reagents used to make up the incubation buffer were premixed and consisted of the following components: sodium acetate buffer (1 M, pH 5.0, 18 ml), sodium fumarate (0.2 M, 4.5 ml), ascorbic acid (0.2 M, 4.5 ml, freshly prepared), pargyline (20 mM, freshly prepared, 4.5 ml), N-ethylmaleimide (0.2 M, 4.5 ml), catalase (10 000 U/ml, 9 ml), copper sulfate (20 μM, 4.5 ml) and 4.5 ultrapure water. The standard incubation mixture (total volume, 950 μl) contained: 50 μL of compound or vehicle (dimethyl sulfoxide 2%); 700 μL of incubation buffer; 125 μl of plasma (or saline for blank reaction or standard curve); 75 μl of saline. The reaction mixture was placed in water bath, shaking at 37° C. and pre-incubated for 10 minutes. Tyramine (0.5 M) was added and incubation proceeded for 45 minutes. The reaction contents were exposed to air. A sample of enzyme preparation (with 125 μl of plasma) that had been added perchloric acid 2 M at the end of the pre-incubation period was used as blank. A blank for each of the tested compounds was used. For octopamine standard curve, perchloric acid 2 M was replaced by increasing concentrations of octopamine prepared in perchloric acid 2 M (0.5, 1, 2.5, 5, 7.5, 10, 15, 20 μg/ml, final concentration). The incubation was stopped by adding 200 μl of 2 M molar perchloric acid, and the mixture was centrifuged at 9000 g for 5 min. The supernatant fluid (800 μL) was transferred to a column (SPE cartridge ISOLUTE SCX-3, 100 mg) and centrifuged at 150 g for 2 min. The column was washed two more times with 0.5 ml of ultrapure water by centrifuging at 150 g for 2 min. The adsorbed octopamine was eluted twice with 0.3 ml of 4 M ammonium hydroxide by centrifuging at 150 g for 2 min. Octopamine in the eluate was then converted to p-hydroxybenzaldehyde by adding 200 μl of sodium periodate (2%) and incubating for 6 min. Excess periodate was than reduced by adding 200 μl of sodium metabisulfite (10%). Absorbance was measured at […] in a 96-well plate by use of a SpectraMAX plus 384 (Molecular Devices) with software SOFTmax® PRO Software 5.3 spectrophotometer. Absorbance was linear with octopamine concentration from 0.5 to 20 μg/ml. Dopamine beta hydroxylase activity is determined as nmol of octopamine formed/ml of plasma/hour and effect of compounds is presented as % control.
Results are reported in the table below as activity in % of control at the inhibitor concentration tested.

As to `CN(C)C(=O)Cc1[nH]c(=S)n2c1[C@@H]1C[C@]1(c1cc(F)cc(Cl)c1)C2` [Example 69, 2-((5aS,6aR)-5a-(3-chloro-5-fluorophenyl)-3-thioxo-2,3,5,5a,6,6a-hexahydrocyclopropa[3,4]pyrrolo[1,2-c]imidazol-1-yl)-N,N-dimethylacetamide], the “Plasma (0.1 μM), activity in % of control” value is on record as 82.1 % of control and the “Plasma (1 μM), activity in % of control” value is on record as 24.1 % of control.
On to `O=C(Cc1[nH]c(=S)n2c1[C@@H]1C[C@]1(c1cc(Br)ccc1F)C2)N1CCCC1` [Example 70, 2-((5aS,6aR)-5a-(5-bromo-2-fluorophenyl)-3-thioxo-2,3,5,5a,6,6a-hexahydrocyclopropa[3,4]pyrrolo[1,2-c]imidazol-1-yl)-1-(pyrrolidin-1-yl)ethan-1-one], for which the “Plasma (0.1 μM), activity in % of control” value is reported as 36.6 % of control and the “Plasma (1 μM), activity in % of control” value is 2.9 % of control.
The matching figures for `CN(C)CCCNC(=O)Cc1[nH]c(=S)n2c1C[C@H](c1c(F)c(F)cc(F)c1F)C2.Cl` [Example 71, (R)—N-(3-(dimethylamino)propyl)-2-(6-(2,3,5,6-tetrafluorophenyl)-3-thioxo-2,5,6,7-tetrahydro-3H-pyrrolo[1,2-c]imidazol-1-yl)acetamide Hydrochloride]: 57.0 % of control and 11.9 % of control.
In the same order, the values of `O=C(Cc1[nH]c(=S)n2c1C[C@H](c1c(F)c(F)cc(F)c1F)C2)NCCO` [Example 72, (R)—N-(2-hydroxyethyl)-2-(6-(2,3,5,6-tetrafluorophenyl)-3-thioxo-2,5,6,7-tetrahydro-3H-pyrrolo[1,2-c]imidazol-1-yl)acetamide] are 90.8 % of control and 28.9 % of control.
Regarding `COCCNC(=O)Cc1[nH]c(=S)n2c1C[C@H](c1c(F)c(F)cc(F)c1F)C2` [Example 73, (R)—N-(2-methoxyethyl)-2-(6-(2,3,5,6-tetrafluorophenyl)-3-thioxo-2,5,6,7-tetrahydro-3H-pyrrolo[1,2-c]imidazol-1-yl)acetamide], the “Plasma (0.1 μM), activity in % of control” value is reported as 75.9 % of control and the “Plasma (1 μM), activity in % of control” value is reported as 19.1 % of control.
In the same order, the values of `O=C(Cc1[nH]c(=S)n2c1C[C@@H](c1cc(Br)ccc1F)C2)NC1CCCC1` [Example 74, (S)-2-(6-(5-bromo-2-fluorophenyl)-3-thioxo-2,5,6,7-tetrahydro-3H-pyrrolo[1,2-c]imidazol-1-yl)-N-cyclopentylacetamide] are 70.3 % of control and 8.1 % of control.
In the same order, the values of `O=C(Cc1[nH]c(=S)n2c1C[C@H](c1cc(Cl)ccc1F)C2)N[C@@H]1CCOC1` [Example 75, 2-((R)-6-(5-chloro-2-fluorophenyl)-3-thioxo-2,5,6,7-tetrahydro-3H-pyrrolo[1,2-c]imidazol-1-yl)-N—((R)-tetrahydrofuran-3-yl)acetamide] are 91.0 % of control and 56.3 % of control.
In the same order, the values of `O=C(Cc1[nH]c(=S)n2c1C[C@H](c1c(F)cccc1F)C2)NC1CCCC1` [Example 76, (R)—N-cyclopentyl-2-(6-(2,6-difluorophenyl)-3-thioxo-2,5,6,7-tetrahydro-3H-pyrrolo[1,2-c]imidazol-1-yl)acetamide] are 65.8 % of control and 13.1 % of control.
As to `O=C(Cc1[nH]c(=S)n2c1C[C@H](c1c(F)cccc1F)C2)N[C@@H]1CCOC1` [Example 77, 2-((R)-6-(2,6-difluorophenyl)-3-thioxo-2,5,6,7-tetrahydro-3H-pyrrolo[1,2-c]imidazol-1-yl)-N—((R)-tetrahydrofuran-3-yl)acetamide], the “Plasma (0.1 μM), activity in % of control” value was 87.2 % of control and the “Plasma (1 μM), activity in % of control” value is on record as 38.9 % of control.
The matching figures for `O=C(Cc1[nH]c(=S)n2c1C[C@H](c1c(F)c(F)cc(F)c1F)C2)NC1CC1` [Example 78, (R)—N-cyclopropyl-2-(6-(2,3,5,6-tetrafluorophenyl)-3-thioxo-2,5,6,7-tetrahydro-3H-pyrrolo[1,2-c]imidazol-1-yl)acetamide]: 77.3 % of control and 24.4 % of control.
The matching figures for `O=C(Cc1[nH]c(=S)n2c1C[C@H](c1c(F)c(F)cc(F)c1F)C2)NCC1CC1` [Example 79, (R)—N-(cyclopropylmethyl)-2-(6-(2,3,5,6-tetrafluorophenyl)-3-thioxo-2,5,6,7-tetrahydro-3H-pyrrolo[1,2-c]imidazol-1-yl)acetamide]: 54.3 % of control and 10.3 % of control.
The matching figures for `O=C(Cc1[nH]c(=S)n2c1C[C@H](c1c(F)c(F)cc(F)c1F)C2)NC1CCC1` [Example 80, (R)—N-cyclobutyl-2-(6-(2,3,5,6-tetrafluorophenyl)-3-thioxo-2,5,6,7-tetrahydro-3H-pyrrolo[1,2-c]imidazol-1-yl)acetamide]: 60.7 % of control and 9.8 % of control.
Turning to `CN1CCN(C(=O)Cc2[nH]c(=S)n3c2C[C@H](c2c(F)c(F)cc(F)c2F)C3)CC1` [Example 81, (R)-1-(4-methylpiperazin-1-yl)-2-(6-(2,3,5,6-tetrafluorophenyl)-3-thioxo-2,5,6,7-tetrahydro-3H-pyrrolo[1,2-c]imidazol-1-yl)ethan-1-one], the “Plasma (0.1 μM), activity in % of control” value is reported as 63.1 % of control and the “Plasma (1 μM), activity in % of control” value is 15.9 % of control.
The matching figures for `O=C(Cc1[nH]c(=S)n2c1C[C@H](c1c(F)c(F)cc(F)c1F)C2)N1CCC(O)CC1` [Example 82, (R)-1-(4-hydroxypiperidin-1-yl)-2-(6-(2,3,5,6-tetrafluorophenyl)-3-thioxo-2,5,6,7-tetrahydro-3H-pyrrolo[1,2-c]imidazol-1-yl)ethan-1-one]: 69.2 % of control and 16.6 % of control.
The matching figures for `O=C(Cc1[nH]c(=S)n2c1C[C@H](c1c(F)c(F)cc(F)c1F)C2)N1CCC(CO)CC1` [Example 83, (R)-1-(4-(hydroxymethyl)piperidin-1-yl)-2-(6-(2,3,5,6-tetrafluorophenyl)-3-thioxo-2,5,6,7-tetrahydro-3H-pyrrolo[1,2-c]imidazol-1-yl)ethan-1-one]: 78.8 % of control and 15.9 % of control.

The values are drawn from patent US11434242B2, “Dopamine-b-hydroxylase inhibitors” (BIAL-PORTELA & Cª, S.A., priority 2017, dated 2022).
